Test results: US20250325492A1, “IONIZABLE LIPIDS, LIPID NANOPARTICLES FOR MRNA DELIVERY AND METHODS OF MAKING THE SAME” (University of Cincinnati, priority 2022, published 2025)

How the values were obtained:
human Jurkat T cells [1] = experiment: In vitro cellular uptake of Cy5-labeled eGFP mRNA LNPs, flow cytometry; assay type: cell-based; conditions: 44-hour incubation; for cellular uptake efficiency, result in words: compared with the controls
Protocol: (§1) Flow cytometry was used to determine in vitro cellular uptake and transfection efficacy in human Jurkat T cells. The cells were seeded in a 96-well plate at a density of 40,000 cells/well. Different formulations containing 100 ng of mRNA were added to each well and were incubated for 44 hours at 37° C. The cells were washed and centrifuged at 300×g. The supernatant was discarded. After the cells were diluted in PBS, flow cytometry analysis was performed to quantify the amounts of cellular uptake and transfection efficiency.
(§2) LNPs with different compositions were tested against Jurkat cells for both cellular uptake and mRNA transfection efficiencies, as depicted in FIGS. 17A and 17B respectively. Human Jurkat cells are representative T lymphocytes which are known to be difficult to transfect. The LNPs were tested for cellular uptake using Cy5-labeled eGFP mRNA. Cy5 fluorescent dye was used to determine the cellular uptake while eGFP fluorescence was used to determine the transfection efficiency of the mRNA encapsulated in the different LNP formulations. After 44-hour incubation, fluorescence was measured using a flow cytometer. In Jurkat cells, the cellular uptake was ˜36% for the positive control, SM-102 while the transfection efficiency was ˜91%.

human Jurkat T cells [2] = experiment: In vitro mRNA transfection efficiency (eGFP fluorescence), flow cytometry; assay type: cell-based; conditions: 44-hour incubation; for transfection efficiency: 100 ng mRNA per well, eGFP fluorescence, FIG. 17B; for transfection efficiency, result in words: compared with the controls
Protocol: as §1, §2

## CCCCCCCCC(CCCCCC)COC(=O)CCCCCN(CCCCCC(=O)OCC(CCCCCC)CCCCCCCC)CCN(CCN(C)C)C1CCC1 (stereo not shown) [Lipid 2, 2-hexyldecyl 6-[(2-{cyclobutyl[2-(dimethylamino)ethyl]amino}ethyl)({6-[(2-hexyldecyl)oxy]-6-oxohexyl})amino]hexanoate]
Human Jurkat T cells [1]
  cellular uptake efficiency, result in words: outperformed the controls
Human Jurkat T cells [2]
  transfection efficiency: 92%
  transfection efficiency, result in words: outperformed the controls

## CCCCCCCCC(CCCCCC)COC(=O)CCCCCN(CCCCCC(=O)OCC(CCCCCC)CCCCCCCC)CCN(C)C (stereo not shown) [Control 2, 1,1′-bis(2-hexyldecyl) 6,6′-[[2-(dimethylamino)ethyl]imino]bis[hexanoate], reference compound]
Human Jurkat T cells [2]
  transfection efficiency: 80%

## CCCCCCCCC(CCCCCC)COC(=O)CCCCCN(CCCCCC(=O)OCC(CCCCCC)CCCCCCCC)CCN(CCO)C1CCC1 (stereo not shown) [Lipid 1]
Human Jurkat T cells [2]
  transfection efficiency: 59%

## CCCCCCCCC(CCCCCC)COC(=O)CCCCCN(CCCCCC(=O)OCC(CCCCCC)CCCCCCCC)CCN(CCCN(C)C)C1CCC1 (stereo not shown) [Lipid 3, 2-hexyldecyl 6-[(2-{cyclobutyl[3-(dimethylamino)propyl]amino}ethyl)({6-[(2-hexyldecyl)oxy]-6-oxohexyl})amino]hexanoate]
Human Jurkat T cells [1]
  cellular uptake efficiency, result in words: outperformed the controls
Human Jurkat T cells [2]
  transfection efficiency: 78%
  transfection efficiency, result in words: outperformed the controls

## CCCCCCCCCCCOC(=O)CCCCCN(CCO)CCCCCCCC(=O)OC(CCCCCCCC)CCCCCCCC [SM-102, reference compound]
Human Jurkat T cells [1]; 100 ng mRNA per well, Cy5 fluorescence, FIG. 17A
  cellular uptake: ~36%
Human Jurkat T cells [2]
  transfection efficiency: ~91%
